Test results: patent publication US10351594B2, “Process for preparing compounds having triple activities of thrombolysis, antithrombosis, and radical scavenging” (Shanghai Lumosa Therapeutics Co., Ltd., priority 2013, dated 2019)
Marks after values point to notes of the source that are not given here.

Experiments:
[1] = tested on: formation of thrombus (rat arteriovenous bypass); experiment: Antithrombotic activity via intravenous administration, rat arteriovenous bypass cannula with thread; format: in vivo, male SD rats; settings: n = 10
Text: A cannula was composed of 3 segments. The middle segment has a length of 80 mm and an inner diameter of 3.5 mm. […] The pre-weighed, 60 mm in length thread was placed in the middle segment of the polyethylene tube. Both ends of the wider tube sheathed the un-narrowed ends of two polyethylene tubes respectively (0.5 mm of the thread was restrained by one of the segment to fix the thread). The cannula was filled with a heparin solution in normal saline (50 IU/kg) through the tip end by using an injector and was ready for use. 200-220 g male SD rats were anesthetized with 20% urethane solution (6 mL/kg, ip). Anesthetized rats were fixed in a supine position, and the left external jugular vein was separated and penetrated with a suture at the proximal and distal ends respectively, and the distal end was ligated. An incision was carefully made on the exposed left external jugular vein, and the tip end without thread-restraining of the bypass cannula prepared as described above was inserted into the proximal end of the open incision in the left external jugular vein. A precise amount of heparin in normal saline (50 IU/kg) was injected through the tip at the other end by using an injector. Then, the injector was replaced, and precise amount of drug was injected by the same way. At this moment, without removing the injector from the ethylene tube, the right common carotid artery was separated, and the proximal end was clipped by an artery clip. The right common carotid artery was penetrated with a suture at the proximal and distal ends respectively, and the distal end was ligated. An incision was carefully cut across the right common carotid artery near the artery clip. The injector was pulled out of the polyethylene tube through the tip, and the tip of the polyethylene tube was then inserted into the proximal end of the artery incision. Both ends of the bypass cannula were fixed to the artery or vein with #4 sutures. The artery clip was then removed to allow blood to flow from the artery to the vein through the bypass cannula. A rat arteriovenous bypass thrombolysis model was thus established. The process was timed from the beginning of circulation, the thread attached with thrombus was taken out from the bypass cannula after 15 minutes and accurately weighed. The difference in the mass of the thread before and after was determined as the wet weight of the thrombus, which was statistically analyzed and used to evaluate the in vivo antithrombotic activities of the compounds. The wet weight of the thrombus was expressed as average value and standard deviation (x±SD). The drug administration method is intravenous injection. The blank control was normal saline solution, and the dose was 1 mL/kg. The positive control was aspirin, and the dose was 9 mg/kg. The dose of compounds 5Aa-p of the present invention was 0.1 nmol/kg. The method was the same as in example 3. The drug administration method is intravenous injection. The blank control was normal saline solution, and the dose was 3 mL/kg. The positive control was aspirin, and the dose was 9 mg/kg.

[2] = tested on: thrombus (rat arteriovenous bypass thrombolysis model); experiment: Thrombolytic activity via intravenous administration, rat arteriovenous bypass thrombolysis model; format: in vivo, male SD rats; settings: n = 10
Method: 200-220 g male SD rats were anesthetized with 20% urethane solution (6 mL/kg, ip). Anesthetized rats were fixed in a supine position, and the right common carotid artery was separated, clamped at the proximal end with an arterial clip, and penetrated with a suture at the proximal and distal ends, respectively. The suture at the distal end is clipped tightly by a hemostatic clamp at the skin/fur. Cannulation was performed at the distal end, the arterial clamp was loosened, and about 1 ml arterial blood was discharged into a 1 mL EP vial. 0.1 mL rat arterial blood was injected into a vertically fixed glass tube (15 mm in length, with an inner diameter of 2.5 mm and an outer diameter of 5.0 mm, sealed with a rubber stopper at the bottom), into which was immediately inserted a thrombus immobilization screw made of stainless steel. […] 40 min after the blood coagulated, the rubber stopper at the bottom of the glass tube was removed, the stem of the thrombus immobilization screw was fixed by forceps, and the thrombus-wrapped thrombus immobilization screw was carefully taken out from the glass tube and precisely weighted.
A bypass cannula was composed of 3 segments. The middle segment was a polyethylene tube having a length of 60 mm and an inner diameter of 3.5 mm. The segments on both ends were similar polyethylene tubes having a length of 100 mm, an inner diameter of 1 mm and an outer diameter of 2 mm, one end of which was pulled to form a tip, with an outer diameter of 1.0 mm (used in inserting into the rat carotid artery or vein), the other end of which was sheathed by a polyethylene tube having a length of 7 mm and an outer diameter of 3.5 mm (thickened, used in inserting into the polyethylene tube of the middle segment). The inner wall of the 3-segment cannula was entirely silylated. The thrombus-wrapped thrombus immobilization screw was placed into the polyethylene tube of the middle segment, and both ends of the tube sheath the thickened ends of two polyethylene tubes. The cannula was filled with a heparin solution in normal saline (50 IU/kg) through the tip end by using an injector and was ready for use.
The left external jugular vein of the rat was separated and penetrated with a suture at the proximal and distal ends respectively, and the distal end was ligated. An incision was carefully made on the exposed left external jugular vein, and the tip of the bypass cannula prepared as described above was inserted into the proximal end of the incision in the left external jugular vein, away from the stem of the thrombus immobilization screw in the middle segment of the bypass cannula (which accommodated the accurately weighed thrombus immobilization screw). A precise amount of heparin in saline (50 IU/kg) was injected through the tip at the other end by using an injector. At this moment, without removing the injector from the polyethylene tube, the tube between the injector and the polyethylene tube was clamped with a hemostatic clamp. The blood flow was stopped by clamping the proximal end of the right common carotid artery with an arterial clip, and an incision was cut carefully across the common carotid artery near the clip. The injector was pulled out of the polyethylene tube through the tip, and the tip of the polyethylene tube was then inserted into the proximal end of the artery incision. Both ends of the bypass cannula were fixed to the artery or vein with #4 sutures.
A scalp needle was used to pass saline solution, a urokinase in saline solution or varied concentrations of the compounds in saline solution through the middle section of the bypass cannula (which accommodated the accurately weighed thrombus immobilization screw) to a position at the proximal vein and away from the thrombus immobilization screw. The artery clip was then removed to allow blood to flow from the artery to the vein through the bypass cannula. A rat arteriovenous bypass thrombolysis model was thus established. […]

stroke rats = experiment: Therapeutic effect in stroke rats (microthrombus injected into the brain, treated at once): Zealonga score and TTC infarction volume; format: in vivo, SD male rats; settings: for Neural function scores: Zealonga method, 24 hours after awake, n = 9; for Percentage of infarction volume: cerebral infarction, TTC, n = 7
Method: SD male rats (280-300 g) were randomly divided to UK positive control group at a dose of 20000 IU/kg, blank control group with normal saline solution, compound control group with PAK at a dose of 5 μmol/kg, and compound 5Ak group at a dose of 1 μmol/kg (high), 0.1 μmol/kg (medium), and 0.01 μmol/kg (low). A 10% chloral hydrate solution (400 mg/kg) was injected intraperitoneally into rats for anesthesia. […] The 10 μl blood drawn was placed in a 1 mL EP vial and kept at RT for 30 min to allow the coagulation of blood and then transferred into a −20° C. refrigerator for 1 hour to allow the formation of solid coagulation. 1 hour later, the blood clots were taken out, 1 mL normal saline was added therein, and then the blood clots were broken into relatively uniform microthrombus by a steel spatula. The microthrombus suspension was then transferred into a 1 mL injector for use. […] The common jugular vein was separated, and then injected with UK at the dose of 20000 IU/kg, normal saline solution, or compound 5Ak at the dose of 1 μmol/kg. The vein was ligated. 3 drops of penicillin was dropped on the wound. The wound was sewed, and animals were waited for awake.
24 hours after the rats were awake, the degree of damage in neural function was evaluated by the Zealonga method. […] The evaluation results were statistically analyzed and subjected to t-test.
After the rats were awake for 24 hours and assessed for their degree of damage in neural function by Zealonga method, they were anesthetized with urethane followed by immediate decapitation and removal of the brain. Brain tissues were kept in a −20° C. refrigerator for 2 hours, and coronal sections of about 2 mm were successively sliced from the prefrontal end for a total of 5 sections and then placed into a 2% TTC solution to incubate without light at 37° C. for 30 min. The color change in brain sections was observed: normal brain tissues were stained red by TTC, while ischemic brain tissues appeared in white. Photographs were taken by using a digital camera and processed with image statistics software, and the volume of infarction in brain tissues and the area of normal brain tissues in the coronal sections were calculated. The ratio of the cerebral infarction volume of each group was statistically calculated and subject to t-test.

[3] = Table 1, control groups 6, PAK, 6 + PAK, dose not given

With `CC(=O)Oc1ccccc1C(=O)O` [Aspirin, aspirin, reference compound] the “wet weight of thrombus” value ([1]; Table 3, Aspirin 9 mg/kg) was 46.95 ± 5.21^a mg and the “wet weight of thrombus” value ([1]; Table 4, Aspirin 9 mg/kg) was 45.62 ± 2.60 mg.

`CC1(C)N[C@H](C(=O)N[C@@H](CCCCN)C(=O)O)Cc2cc(O)c(O)cc21` [Compound 6, 3S-6,7-dihydroxy-1,1-dimethyl-1,2,3,4-tetrahydro-isoquinoline-3-acyl-Lys, reference compound] was tested, and the “Weight reduction in thrombus” value [2, 3] was 13.87 ± 3.07^a mg.

In the case of Pro-Ala-Lys [PAK, reference compound], the “Weight reduction in thrombus” value [2, 3] is reported as 14.17 ± 1.84^a mg, the Neural function scores (stroke rats; PAK 5 μmol/kg) is reported as 2.20 ± 1.60 and the “Percentage of infarction volume” value (stroke rats; PAK 5 μmol/kg) is reported as 18.36 ± 7.38%.

In the case of urokinase [reference compound], the “Weight reduction in thrombus” value ([2]; Table 1, urokinase 20000 U/kg (1.68 mg/kg) i.v.) is reported as 18.95 ± 2.73^a mg, the “Weight reduction in thrombus” value ([2]; Table 2, Urokinase 20000 U/kg i.v.) is reported as 25.61 ± 3.87 mg and the Neural function scores (stroke rats; urokinase 20000 IU/kg) is reported as 1.30 ± 0.95^a. For the same molecule, the “Percentage of infarction volume” value (stroke rats; urokinase 20000 IU/kg) was 4.60 ± 2.09%.
